The target of one data set is T1, human histamine H1R (Homo sapiens, UniProt P35367).
T1 construct: expressed in transfected cells; host or cells: HEK293T cells, transient expression; cell homogenates
Nature of the data set: Competition radioligand binding with [3H]mepyramine on homogenates of HEK293T cells expressing HA-H1R. The conditions noted are these: for pKi shift: pKi PSScis – pKi trans (log unit). As to the method: For 10c and 12c, continuous illumination at 365 nm was used to counteract the short half-lives of their PSScis states, while for the other compounds PSScis states were obtained by pre-illumination with 360 nm.
Experimental methods – Pharmacology
The homogenates were stored at −20 °C. […] A]erwards, the cell homogenates were incubated with the respecIve (photo)ligands in […]
black 96 well plates (Greiner). During the incubaIon Ime, 10c and 12c were conInuousl y i l l umi nated with 365 nm (10 V, 2 mW, constant mode) light (96 LED array plates, LAD-1, LEDA-x, Bio Research Center Co., Ltd. Izumi, Japan) to account for thei r short-lived cis isomers. A]er a 4-hour incubaIon Ime, the binding reacIon was stopped using a harvester (PerkinElmer). Upon mulIple wa s h ste ps through a polyethyleneimine-coated GF/C ﬁlter plate (PerkinElmer) receptor-bound radioligand was captured by the GF/C ﬁlter plate. A]er drying the GF/C plate, the ﬁlter-bound radioligand was quanIﬁed by scinIllaIon counIng using MicroScint-O and the Wallac MicroBeta counter (PerkinElmer). […]

Data set [1] is described as follows: UV-vis absorption spectroscopy. Particulars: 25 μM in HBSS buffer containing 50% DMSO; for λmax cis: n–π* band; for λmax trans: π–π* band.
Experimental: (§1) The photochemical properties of the photoswitchable ligands (Table 1, Fig. S2–S10) were first characterized by UV-vis absorption spectroscopy.
(§2) Experimental procedures – Photochemistry
(§3) equipped with a thermostated cell holder set at 20 °C. Fits of UV−vis spectroscopy data were generated
(§4) IlluminaIon for all photochemical experiments was executed using a Suter
(§5) instruments Lambda LS with a 300 W full-spectrum lamp connected to a Suter instruments Lambda
For photochemical analyses,
(§6) IlluminaIons for pharmacological experiments were performed in cylindrical clear glass vials with a
(§7) The typi cal di stance between l i ght source and vi al or cuvete was 2 cm.
A short description of data set [2]: Thermal relaxation of PSScis states. The conditions noted are these: for Approximate t1/2 (thermal relaxation of PSScis): HBSS buffer containing 50% DMSO; for thermal half-lives (approximated dark stability), order of magnitude in words: in buffer.
Experimental: as §1, §2, §3, §4, §5
For photochemical analyses,
as §6, §7
A short description of data set [3]: Photostationary state by LC-MS at the isosbestic point. Particulars: 10 mM in DMSO; for PSStrans (area% trans): after illumination of PSScis state with 434 ± 9 nm; for PSScis (area% cis): after illumination of trans isomer with 360 ± 20 nm.
Experimental: as §1, §2, §3, §4, §5
For photochemical analyses,
as §6, §7
Another data set addresses hH1R. The conditions noted are these: cited from earlier work; for pKi hH1R PSScis: PSScis state; for pKi hH1R trans: trans isomer.
Another data set has as its system gpH1R. Details: method as in PMID 30628180. Particulars: cited from earlier work; for pA2 gpH1R PSScis: PSScis state; for pA2 gpH1R trans: trans isomer.
Setting [4] is: PSScis state obtained by pre-illumination with 360 nm, mean ± SEM, n = 3, read-out: pKi PSScis (converted).
Setting [5] is: trans isomer (8: template, not photoswitchable), [3H]mepyramine, mean ± SEM, n = 3.
Setting [6] is: trans isomer (8: template, not photoswitchable), [3H]mepyramine, mean ± SEM, n = 3, read-out: pKi trans (converted).
Where [7] appears, read: Arrhenius extrapolation to 20 °C.
The mark [8] stands for this setting: continuous illumination at 365 nm during 4 h incubation at 25 °C, mean ± SEM, n = 3, read-out: pKi PSScis (converted).

The structures appear in SMILES notation. “And” between values parts separate entries of the source, which are not always exact repeats. Equal values may be shown once. Read-outs that look alike come from different tables or passages of the source.

T1 sequence (P35367 whole entry): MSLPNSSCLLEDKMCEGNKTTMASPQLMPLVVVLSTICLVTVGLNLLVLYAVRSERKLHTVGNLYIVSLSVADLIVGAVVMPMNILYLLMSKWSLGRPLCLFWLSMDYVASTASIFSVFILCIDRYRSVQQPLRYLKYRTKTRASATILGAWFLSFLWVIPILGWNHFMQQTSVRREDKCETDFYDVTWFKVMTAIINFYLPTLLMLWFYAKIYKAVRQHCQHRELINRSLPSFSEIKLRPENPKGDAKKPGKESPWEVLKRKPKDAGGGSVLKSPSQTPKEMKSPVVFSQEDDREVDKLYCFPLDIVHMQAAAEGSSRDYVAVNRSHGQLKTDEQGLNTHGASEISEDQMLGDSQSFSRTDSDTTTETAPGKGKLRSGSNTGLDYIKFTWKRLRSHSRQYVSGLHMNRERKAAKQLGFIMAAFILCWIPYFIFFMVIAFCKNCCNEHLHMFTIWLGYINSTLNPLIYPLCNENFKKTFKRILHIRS

Consider `Clc1ccc2c(c1/N=N/c1ccccc1)CCc1cccnc1C2=C1CCNCC1` [11c], for which the “pKi PSScis” value on human histamine H1R (PSScis state obtained by pre-illumination with 360 nm, mean ± SEM, n = 3) is listed as less than 6.0. Besides, the Ki at human histamine H1R (setting [4]) is more than 1000 nM. The pKi trans at human histamine H1R (setting [5]) is listed as less than 6.0. The Ki at human histamine H1R (setting [6]) was more than 1000 nM. In addition, the λmax cis in data set [1] is 419 nm. Further, the “Approximate t1/2 (thermal relaxation of PSScis)” value in data set [2] (setting [7]) is 211 days. Moreover, the “thermal half-lives (approximated dark stability), order of magnitude in words” value (“thermal half-lives” for short) in data set [2] is recorded as “months”. Also, in data set [3], the “PSStrans (area% trans)” value worked out at 82 area% and the “PSScis (area% cis)” value stood at 67 area%.
Consider `Clc1ccc2c(c1)CCc1cccnc1C2=C1CCN(Cc2ccccc2/N=N/c2ccccc2)CC1` [12c], for which the Ki at human histamine H1R (setting [8]) was 5.01 nM; at human histamine H1R (setting [6]), 3.98 nM. Also, at human histamine H1R, the pKi shift is listed as −0.1. The λmax trans in data set [1] worked out at 329 nm. Moreover, the “Approximate t1/2 (thermal relaxation of PSScis)” value in data set [2] (20 °C) was determined as 0.000521 days. Moreover, the “thermal half-lives” value in data set [2] is given as “seconds”.
As to `Clc1ccc2c(c1)CCc1c(/N=N/c3ccccc3)ccnc1C2=C1CCNCC1` [10c], the Ki on human histamine H1R (setting [8]) is 158 nM. The compound also had a pKi trans at human histamine H1R (setting [5]) of 6.8 ± 0.0. Besides, the Ki on human histamine H1R (setting [6]) is 158 nM. Also, in data set [1], the λmax cis is 419 nm and the λmax trans came to 319 nm. The “Approximate t1/2 (thermal relaxation of PSScis)” value in data set [2] (20 °C) was determined as 0.0104 days. In addition, the “thermal half-lives” value in data set [2] is “minutes”.
Consider `Clc1ccc2c(c1)CCc1cc(/N=N/c3ccccc3)cnc1C2=C1CCNCC1` [10b], for which the Ki at human histamine H1R (setting [4]) was 3.98 nM. Moreover, the pKi shift at human histamine H1R is listed as −0.3. For the same compound, on human histamine H1R (setting [6]), the Ki was 2 nM. Besides, in data set [1], the λmax cis came to 430 nm and the λmax trans worked out at 335 nm. Besides, in data set [2] (setting [7]), the “Approximate t1/2 (thermal relaxation of PSScis)” value was 31 days. Further, the “thermal half-lives” value in data set [2] is reported as “months”. For the same compound, in data set [3], the “PSStrans (area% trans)” value came to 79 area% and the “PSScis (area% cis)” value came out at 87 area%.
For the compound `CN1CCC(Oc2ccccc2Cc2ccccc2)CC1` [compound 4], on hH1R, the “pKi hH1R” value is on record as 8.7 ± 0.1.
As for `Clc1ccc2c(c1)CCc1cccnc1C2=C1CCN(Cc2cccc(/N=N/c3ccccc3)c2)CC1` [12b], the Ki at human histamine H1R (setting [4]) is 6.31 nM. Further, at human histamine H1R, the pKi shift was −0.1. The Ki at human histamine H1R (setting [6]) was 5.01 nM. In data set [1], this compound showed a λmax cis of 423 nm and a λmax trans of 325 nm. Also, the “Approximate t1/2 (thermal relaxation of PSScis)” value in data set [2] (setting [7]) was 198 days. In addition, the “thermal half-lives” value in data set [2] is given as “months”. Also, in data set [3], the “PSStrans (area% trans)” value was found to be 81 area% and the “PSScis (area% cis)” value came to 91 area%.
On to `CN1CCN(/C(=N\c2ccc(/N=N/c3ccc([N+](=O)[O-])cc3)cc2)c2ccc(Cl)cc2)CC1` [compound 3], for which, in the data set on gpH1R, the “pA2 gpH1R PSScis” value is 4.5 ± 0.1 and the “pA2 gpH1R trans” value is 6.2 ± 0.1.
`CN1CCN(/C(=N\c2ccc(/N=N/c3ccc(S(=O)(=O)O)cc3)cc2)c2ccc(Cl)cc2)CC1` [compound 2]: in the data set on gpH1R, the “pA2 gpH1R PSScis” value was 4.7 ± 0.1 and the “pA2 gpH1R trans” value is listed as 5.9 ± 0.1.
As for `Clc1ccc2c(c1)CCc1ccc(/N=N/c3ccccc3)nc1C2=C1CCNCC1` [10a], the Ki on human histamine H1R (setting [4]) is 15.8 nM. In addition, the pKi shift on human histamine H1R is given as −0.5. Also, at human histamine H1R (setting [6]), the Ki is 5.01 nM. Also, the Ki at human histamine H1R (trans isomer, read-out: Ki trans) was 2 nM. The “fold higher H1R affinity compared to 11b” value on human histamine H1R (trans isomers) is “approximately 25 fold”. Besides, on human histamine H1R (trans vs PSScis), the light-induced affinity shift stood at 3.2 fold. Moreover, in data set [1], the λmax cis was 429 nm and the λmax trans is reported as 332 nm. Also, the “Approximate t1/2 (thermal relaxation of PSScis)” value in data set [2] (setting [7]) was 38 days. Also, the “thermal half-lives” value in data set [2] is reported as “months”. For the same compound, in data set [3], the “PSStrans (area% trans)” value was determined as 85 area% and the “PSScis (area% cis)” value amounted to 91 area%.
As for `c1ccc(/N=N/c2ccc3c(c2)CCc2cccnc2C3=C2CCNCC2)cc1` [11b], on human histamine H1R (setting [4]), the Ki was 501 nM. Besides, the pKi shift at human histamine H1R is reported as −0.6. Further, the Ki at human histamine H1R (setting [6]) is 126 nM. Further, in data set [1], the λmax cis is 435 nm and the λmax trans is 338 nm. For the same compound, the “Approximate t1/2 (thermal relaxation of PSScis)” value in data set [2] (setting [7]) is 5 days. In addition, in data set [2], the “thermal half-lives” value is given as “days”. Further, in data set [3], the “PSStrans (area% trans)” value amounted to 80 area% and the “PSScis (area% cis)” value was 91 area%.
For the compound `CCOC(=O)N1CCC(=C2c3ccc(Cl)cc3CCc3cccnc32)CC1` [compound 7, loratadine], the “pKi hH1R” value at hH1R is listed as 6.8 ± 0.1.
For the compound `CN1CCC(Oc2ccccc2/N=N/c2ccccc2)CC1` [compound 6], on hH1R, the “pKi hH1R PSScis” value is given as 5.1 and the “pKi hH1R trans” value is given as 5.2.
`Cc1cncc(CN2CCC(=C3c4ccc(Cl)cc4CCc4cccnc43)CC2)c1` [compound 9, rupatadine]: the “pKi hH1R” value at hH1R is recorded as 8.4.
As for `Clc1ccc2c(c1)CCc1cccnc1C2=C1CCN(Cc2ccc(/N=N/c3ccccc3)cc2)CC1` [12a], on human histamine H1R (setting [4]), the Ki is 3.16 nM. Moreover, at human histamine H1R, the pKi shift is given as −0.1. Further, the Ki at human histamine H1R (setting [6]) was 2.51 nM. In data set [1], this compound displayed a λmax cis of 432 nm and a λmax trans of 327 nm. Also, the “Approximate t1/2 (thermal relaxation of PSScis)” value in data set [2] (setting [7]) is 19 days. Besides, the “thermal half-lives” value in data set [2] is “days”. Besides, in data set [3], the “PSStrans (area% trans)” value amounted to 83 area% and the “PSScis (area% cis)” value came to 93 area%.
On to `Clc1cc2c(cc1/N=N/c1ccccc1)C(=C1CCNCC1)c1ncccc1CC2` [11a], for which, at human histamine H1R (setting [4]), the Ki was 251 nM. Moreover, at human histamine H1R, the pKi shift is listed as −0.2. Further, at human histamine H1R (setting [6]), the Ki was ~158 nM and 158 nM. For the same compound, in data set [1], the λmax cis amounted to 429 nm and the λmax trans amounted to 340 nm. In data set [2] (setting [7]), the “Approximate t1/2 (thermal relaxation of PSScis)” value is 78 days. In data set [2], the “thermal half-lives” value was “months”. In data set [3], the “PSStrans (area% trans)” value is reported as 79 area% and the “PSScis (area% cis)” value was determined as 97 area%.
On to `CN1CCC(Oc2cccc(/N=N/c3ccccc3)c2)CC1` [compound 5], for which, on hH1R, the “pKi hH1R PSScis” value is listed as less than 5.0 and the “pKi hH1R trans” value is listed as less than 5.0.
With `CN1CCN(C2=Nc3ccc(Cl)cc3Oc3ccccc32)CC1` [compound 1], the “pKi hH1R” value at hH1R is on record as 8.1 ± 0.1.

The values above are taken from publication PMC12378361, “Design and synthesis of photoswitchable desloratadine ligands for histamine H1 receptor photopharmacology” (RSC Medicinal Chemistry, 2025).
